Source: patent publication EP3563875A1, “RADIUM FOR RADIONUCLIDE THERAPY, IN COMBINATION WITH CALCIUM […] TREATMENT” (priority 2018, dated 2019)

Experiments:
[1] = cited from earlier work
[2] = Biodistribution and elimination of 223Ra in mice after i.v. administration; type: in vivo, female outbred CD1 mice
Procedure: (§1) The study was performed in female outbred CD1 mice imported from Charles River breeds. Animals were housed in groups of five and acclimated over five days. After acclimatization, the animals were divided into four groups. The day before the experiment the feed was taken away and at the beginning of the experiment itself the animals were weighed and placed in cages individually on a nonwoven fabric. After administration of ^223Ra (ca 200 kBq/animal in 0.05 ml of physiological saline) through vena caudalis, excrements were collected after one and four hours; after 24 hours, five mice were sacrificed from each group, another five were sacrificed after 96 hours. Blood, heart, lung, liver, pancreas, spleen, kidney, urinary bladder, wall of the colon, colon content, stomach, stomach content, thyroid gland, brain, femur, ovaries, parts of skin and muscles, and excrements from each mouse were removed. The organs and excrements in the measuring vessels were weighed and measured in a well of NaI (T1) scintillation detector.
Ten mice were medicated with CaCl2 in the concentration of 1.11 g/L for one week prior to administration of ^223Ra. The solution was used to feed per os ad libitum throughout the experiment. Table 3. Biodistribution of 223Ra with CaCl2
15 mice were pre-medicated with vitamin D3, 160 IU/mouse (0.02 mL of triglyceride oil solution of vitamin D3; 0.2 mg/ml) administered per os with part of the feed, three times a week for one week prior to administration of ^223Ra. Five of these mice were eliminated during the experiment because they refused vitamin intake. Table 4. Biodistribution of 223Ra with vitamin D3
Ten mice were medicated with zoledronic acid; 0.1 mL preparation/mouse was taken from the 4 mg/100 mL infusion solution and administered subcutaneously twice a week for one week before administration of ^223Ra. Table 5. Biodistribution of 223Ra with zoledronic acid
Ten mice were used as a control group. Table 6. Biodistribution of 223Ra
Experimental layout was analogous to Example 1 or 2. In the mouse model, the animals were pre-medicated by oral administration of L-arginine for one week. L-arginine was added to the mouse food once a day. The day before administration of radium, Ca2^+ was administered orally in the form of a soluble salt. Subsequently, Ra-223 was administered intravenously as a solution of RaCl2 in physiological NaCl saline.
Experimental layout was analogous to Example 3. In the mouse model, the animals were pre-medicated by subcutaneous injection of calcitonin for one week so that its serum concentration is about 5 nM. Two days before administration of Ra-223, Ca^2+ was administered orally in the form of a soluble salt. Subsequently, Ra-223 was administered intravenously as a solution.

[3] = intravenously or subcutaneously; cited from earlier work
[4] = Biodistribution and elimination of 223Ra in mice after i.v. administration; type: in vivo, female outbred CD1 mice; conditions: one week pre-medication, oral soluble Ca2+ salt before Ra-223 i.v.; result in words
Procedure: as §1, with “detector. […]” for “detector.”
Experimental layout was analogous to Example 1 or 2. In the mouse model, the animals were pre-medicated by oral administration of L-arginine for one week. L-arginine was added to the mouse food once a day. The day before administration of radium, Ca2^+ was administered orally in the form of a soluble salt. […]

## [Cl][223Ra][Cl] [223Ra, radium-223 dichloride]
[1]; 24 hours after injection
  activity in the blood: less than one percent
[1]; after four hours
  administered activity remains in the blood: approximately four percent
[1]; after intravenous injection
  volume of distribution: higher than the blood volume
[1]; fifteen minutes after the injection
  activity remains in the blood: about 20%
[1]; whole-body measurement seven days after injection, on average
  activity administered excreted from the body: 76%
[1]; within four hours after injection
  uptake in other organs such as the heart, liver, kidney, urinary bladder, and spleen: No significant uptake
[2]; 223Ra ca 200 kBq/animal i.v., kidney, 24 h
  Kidney %ID/g after 24 h: 1.76 %ID/g
[2]; 223Ra ca 200 kBq/animal i.v., kidney, 96 h
  Kidney %ID/g after 96 h: 0.32 %ID/g
[2]; 223Ra ca 200 kBq/animal i.v., large intestine content, 24 h
  Large intestine content %ID/g after 24 h: 2.14 %ID/g
[2]; 223Ra ca 200 kBq/animal i.v., large intestine content, 96 h
  Large intestine content %ID/g after 96 h: 0.27 %ID/g
[2]; 223Ra ca 200 kBq/animal i.v., left femur, 24 h
  Left femur %ID/g after 24 h: 13.37 %ID/g
[2]; 223Ra ca 200 kBq/animal i.v., left femur, 96 h
  Left femur %ID/g after 96 h: 10.33 %ID/g
[2]; 223Ra ca 200 kBq/animal i.v., liver, 24 h
  Liver %ID/g after 24 h: 0.17 %ID/g
[2]; 223Ra ca 200 kBq/animal i.v., liver, 96 h
  Liver %ID/g after 96 h: 0.10 %ID/g
[2]; 223Ra ca 200 kBq/animal i.v., spleen, 24 h
  Spleen %ID/g after 24 h: 8.59 %ID/g
[2]; 223Ra ca 200 kBq/animal i.v., spleen, 96 h
  Spleen %ID/g after 96 h: 6.77 %ID/g
[2]; 223Ra ca 200 kBq/animal i.v., thyroid, 24 h
  Thyroid %ID/g after 24 h: 0.39 %ID/g
[2]; 223Ra ca 200 kBq/animal i.v., thyroid, 96 h
  Thyroid %ID/g after 96 h: 0.07 %ID/g
[2]; 223Ra in excrements, 24 h
  In total after 24 h eliminated in excrements: 33.54 ± 16.22 % ID
[2]; 223Ra in excrements, 96 h
  In total after 96 h eliminated in excrements: 36.43 ± 12.31 % ID
[2]; 223Ra in urine, 24 h
  In total after 24 h eliminated in urine: 16.24 ± 2.29 % ID
[2]; 223Ra in urine, 96 h
  In total after 96 h eliminated in urine: 17.73 ± 2.34 % ID

## N=C(N)NCCC[C@H](N)C(=O)O [L-arginine]
[2]; one week pre-medication, oral soluble Ca2+ salt before Ra-223 i.v., result in words
  Ra uptake in the organism: Ra uptake and resorption increased in the organism

## O=P(O)(O)C(O)(Cn1ccnc1)P(=O)(O)O [zoledronic acid]
[3]
  NOAEL: 0.02 mg/kg/day

## calcitonin
[4]
  Ra uptake in the organism: Ra-223 uptake increased in the organism
